This is an account of results in patent US10961215B2, “N-aryl and N-heteroaryl piperidine derivatives as liver X receptor beta agonists, compositions, and their use” (Merck Sharp & Dohme Corp., priority 2016, dated 2021).

Test [1] concerns the target T1, GST tagged LXRalpha LBD (ligand binding domain) (Homo sapiens, UniProt Q13133).
T1 construct: purchased Invitrogen pv4655
T1 sequence (Q13133 209-447 limits assumed): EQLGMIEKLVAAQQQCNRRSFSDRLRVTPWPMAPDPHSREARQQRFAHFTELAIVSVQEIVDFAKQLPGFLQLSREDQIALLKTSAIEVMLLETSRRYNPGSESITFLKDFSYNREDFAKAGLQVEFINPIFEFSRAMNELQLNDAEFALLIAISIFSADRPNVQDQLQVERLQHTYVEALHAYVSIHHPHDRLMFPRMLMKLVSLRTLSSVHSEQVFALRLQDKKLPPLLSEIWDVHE
In words: LanthaScreen TR-FRET Liver X Receptor Coactivator Assay, LXR alpha-LBD (co-activator recruitment; IP and % Emax relative to T0901317). The class given is biochemical. The note with it: for LXR alpha IP (nM) / EC50: Inflection Point of co-activator recruitment, LXR alpha-LBD, TR-FRET; for Emax: read-out: LXR alpha actiivty at max dose (%). In a few lines: (§1)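 Compounds were first combined with the GST-LBD protein. A premixed fluorescein coactivator peptide and terbium-labelled anti-GST antibody was then added. Plates were incubated at room temperature and TR-FRET measured.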
For orientation: In TR-FRET formats the signal depends on donor and acceptor labels being close together.

Test [2] concerns the target T2, GST tagged LXRbeta LBD (ligand binding domain) (Homo sapiens, UniProt P55055).
T2 construct: purchased Invitrogen pv4658.pps
T2 sequence (P55055 222-460 limits assumed): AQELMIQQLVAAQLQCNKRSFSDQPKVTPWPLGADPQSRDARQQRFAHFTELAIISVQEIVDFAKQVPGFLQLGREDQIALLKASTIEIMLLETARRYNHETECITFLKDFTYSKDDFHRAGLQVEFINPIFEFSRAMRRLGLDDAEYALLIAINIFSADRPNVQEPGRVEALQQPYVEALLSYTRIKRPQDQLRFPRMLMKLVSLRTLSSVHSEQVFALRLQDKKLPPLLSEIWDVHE
Put plainly: LanthaScreen TR-FRET Liver X Receptor Coactivator Assay, LXR beta-LBD (co-activator recruitment; IP and % Emax relative to T0901317). It counts as biochemical. The note with it: for EC50: Inflection Point of co-activator recruitment, LXR beta-LBD, TR-FRET; for Emax / LXR beta actiivty at max dose (%): efficacy at max dose in relation to reference T0901317, LXR beta-LBD; for Emax: read-out: LXR beta actiivty at max dose (%). In a few lines:
as §1

Setting [3] is: efficacy at max dose in relation to reference T0901317, LXR alpha-LBD.

SMILES strings stand for the structures.

A word on the EC50: it is the midpoint of the concentration-response curve. A high value points to a need for much substance. `COc1cccc([C@@](O)(C(=O)N(C)CCCC2CCN(c3ccc(C(=O)N4CC[C@@H](CO)C4)c(Cl)n3)CC2)C(F)(F)F)c1` [Example 2-7, (R)-N-(3-(1-(6-chloro-5-((R)-3-(hydroxymethyl)pyrrolidine-1-carbonyl)pyridin-2-yl)piperidin-4-yl)propyl)-3,3,3-trifluoro-2-hydroxy-2-(3-methoxyphenyl)-N-methylpropanamide]: the “LXR alpha IP (nM)” value in test [1] is reported as “No IP”. Further, in test [1] (setting [3]), the Emax is 4%. Also, in test [2], the EC50 worked out at 420 nM and the Emax turned out to be 43%.
On the same counts, the results for `CNC(=O)c1ccc(N2CCC(c3ccc(NC(=O)[C@](O)(c4cccc(OC)c4)C(F)(F)F)cc3)CC2)cc1Cl` [Example 10-2, (R)-2-chloro-N-methyl-4-(4-(4-(3,3,3-trifluoro-2-hydroxy-2-(3-methoxyphenyl)propanamido)phenyl)piperidin-1-yl)benzamide] are “No IP”, 0%, 3730 nM and 40%.
For `CN(C)C(=O)c1ccc(N2CCC(CCCNC(=O)C3(c4ccccc4)CCC3)CC2)nc1Cl` [Example 5-16, 2-chloro-N,N-dimethyl-6-(4-(3-(1-phenylcyclobutane-carboxamido)propyl)piperidin-1-yl)nicotinamide], the EC50 in test [1] came out at 5220 nM; in test [2] it was 235 nM. The Emax in test [1] (setting [3]) worked out at 26%; in test [2] it was 83%.
On to `COc1cccc([C@](O)(C(=O)N(C)CCCC2CCN(c3ccc(C(=O)N(C)C)c(Cl)n3)CC2)C(F)F)c1` [Example 1-13, (S)-2-chloro-6-(4-(3-(3,3-difluoro-2-hydroxy-2-(3-methoxyphenyl)-N-methylpropanamido)propyl)piperidin-1-yl)-N,N-dimethylnicotinamide], for which, in test [1], the “LXR alpha IP (nM)” value was “No IP”. The Emax in test [1] (setting [3]) worked out at 0%. Further, in test [2], the half-maximal effective concentration (EC50) amounted to 148 nM and the Emax was 63%.
`COc1cccc([C@@](O)(C(=O)N(C)CC[C@H]2CC23CCN(c2ccc(C(=O)NC4CC4)c(Cl)n2)CC3)C(F)(F)F)c1` [Example 7-16, 2-chloro-N-cyclopropyl-6-((R)-1-(2-((R)-3,3,3-trifluoro-2-hydroxy-2-(3-methoxyphenyl)-N-methylpropanamido)ethyl)-6-azaspiro[2.5]octan-6-yl)nicotinamide]: the figures for the concentration for a half-maximal effect (EC50) in test [1] and in test [2] were 1790 nM and 101 nM, respectively. Further, the Emax in test [1] (setting [3]) came out at 40%; in test [2], 54%.
Take `COc1cccc([C@@](O)(C(=O)N(C)CCCC2CCN(c3ccc(C(=O)N4CCCC4)c(Cl)n3)CC2)C(F)(F)F)c1` [Example 2-6, (R)-N-(3-(1-(6-chloro-5-(pyrrolidine-1-carbonyl)pyridin-2-yl)piperidin-4-yl)propyl)-3,3,3-trifluoro-2-hydroxy-2-(3-methoxyphenyl)-N-methylpropanamide]: the “LXR alpha IP (nM)” value in test [1] is “No IP”. The Emax in test [1] (setting [3]) is 0%. Further, in test [2], the EC50 worked out at 126 nM and the Emax was 50%.
In the case of `CN(C)C(=O)c1ccc(N2CCC(CCCN(C)C(=O)C(O)(c3ccccc3)C(F)(F)F)CC2)cc1Cl` (single isomer, unassigned) [Example 4-7, 2-chloro-N,N-dimethyl-4-(4-(3-(3,3,3-trifluoro-2-hydroxy-N-methyl-2-phenylpropanamido)propyl)piperidin-1-yl)benzamide], the “LXR alpha IP (nM)” value in test [1] is “No IP”. Also, in test [1] (setting [3]), the “LXR alpha actiivty at max dose (%)” value is given as 12%. In addition, in test [2], it took 369 nM to reach a half-maximal effect (EC50) and the “LXR beta actiivty at max dose (%)” value was 48%.
Regarding `COc1cccc([C@@](O)(C(=O)N(C)CCCC2CCN(c3cc(Cl)c(C(=O)N(C)C)cn3)CC2)C(F)(F)F)c1` [Example 2-21, (R)-4-chloro-N,N-dimethyl-6-(4-(3-(3,3,3-trifluoro-2-hydroxy-2-(3-methoxyphenyl)-N-methylpropanamido)propyl)piperidin-1-yl)nicotinamide], the values for the EC50 in test [1] and in test [2] were 5940 nM and 1910 nM, respectively. The Emax in test [1] (setting [3]) came to 26%; in test [2] it was 30%.
The corresponding values for `CN(C)C(=O)c1ccc(N2CCC(CCCN(C)C(=O)[C@](O)(c3cc(F)cc(Cl)c3)C(F)(F)F)CC2)nc1Cl` [Example 1-12, (R)-2-chloro-6-(4-(3-(2-(3-chloro-5-fluorophenyl)-3,3,3-trifluoro-2-hydroxy-N-methylpropanamido)propyl)piperidin-1-yl)-N,N-dimethylnicotinamide] are 372 nM, 13 nM, 23% and 78%.
Consider `CN(C)C(=O)c1ccc(N2CCC(CCCN(C)C(=O)[C@@](O)(c3cccc(OC4CC4)c3)C(F)(F)F)CC2)nc1Cl` [Example 1-35, (S)-2-chloro-6-(4-(3-(2-(3-cyclopropoxyphenyl)-3,3,3-trifluoro-2-hydroxy-N-methylpropanamido)propyl)piperidin-1-yl)-N,N-dimethylnicotinamide], for which, in test [1], the “LXR alpha IP (nM)” value is “No IP”. Further, the Emax in test [1] (setting [3]) was 14%; in test [2], 46%. Also, the concentration for a half-maximal effect (EC50) in test [2] turned out to be 437 nM.
For `COc1cccc([C@@](O)(C(=O)N(C)CC[C@H]2CC23CCN(c2ccc(C(=O)N(C)C)c(Cl)n2)CC3)C(F)(F)F)c1` [Example 7-15, 2-chloro-N,N-dimethyl-6-((R)-1-(2-((R)-3,3,3-trifluoro-2-hydroxy-2-(3-methoxyphenyl)-N-methylpropanamido)ethyl)-6-azaspiro[2.5]octan-6-yl)nicotinamide], the 50% effective concentration (EC50) in test [1] was determined as 680 nM; in test [2] it was 12 nM. In addition, the Emax was found to be 37% in test [1] (setting [3]) and 58% in test [2].
In the case of `COc1cccc([C@](O)(C(=O)N(C)CCCC2CCN(c3ccc(C(=O)N(C)C)c(Cl)n3)CC2)C(F)(F)F)c1` [Example 1-27, (S)-2-chloro-N,N-dimethyl-6-(4-(3-(3,3,3-trifluoro-2-hydroxy-2-(3-methoxyphenyl)-N-methylpropanamido)propyl)piperidin-1-yl)nicotinamide], the “LXR alpha IP (nM)” value in test [1] is on record as “No IP”. In addition, the Emax in test [1] (setting [3]) stood at 3%. For the same compound, in test [2], the EC50 is 603 nM and the Emax was found to be 53%.
On the same counts, the results for `CN(C)C(=O)c1ccc(N2CCC([C@H]3C[C@H]3CN(C)C(=O)[C@](O)(c3cccc(C(F)(F)F)c3)C(F)(F)F)CC2)nc1Cl` [Example 15-7, 2-chloro-N,N-dimethyl-6-(4-((1R,2R)-2-(((R)-3,3,3-trifluoro-2-hydroxy-N-methyl-2-(3-(trifluoromethyl)phenyl)rpropanamido)methyl)cyclopropyl)piperidin-1-yl)nicotinamide] are “No IP”, 11%, 26 nM and 53%.
`CN(C)C(=O)c1ccc(N2CCC3(CC2)C[C@@H]3CCN(C)C(=O)[C@](O)(c2ccccc2)C(F)(F)F)cc1Cl` [Example 7-5, 2-chloro-N,N-dimethyl-4-((R)-1-(2-((R)-3,3,3-trifluoro-2-hydroxy-N-methyl-2-phenylpropanamido)ethyl)-6-azaspiro[2.5]octan-6-yl)benzamide]: the concentration giving a half-maximal response (EC50) is 381 nM in test [1] and 11 nM in test [2]. Besides, the Emax in test [1] (setting [3]) was determined as 55%; in test [2], 68%.
In the case of `COc1cccc([C@@](O)(C(=O)N(C)CCC2CC23CCN(c2ccc(C(=O)NC(C)C)c(Cl)n2)CC3)C(F)(F)F)c1` (stereo in doubt) [Example 7-19, 2-chloro-N-isopropyl-6-((R)-1-(2-((R)-3,3,3-trifluoro-2-hydroxy-2-(3-methoxyphenyl)-N-methylpropanamido)ethyl)-6-azaspiro[2.5]octan-6-yl)nicotinamide], the EC50 in test [1] came to 688 nM; in test [2], 76 nM. Also, the Emax turned out to be 27% in test [1] (setting [3]) and 58% in test [2].
In test [1], `CN(C)C(=O)c1ccc(N2CCC(CCCN(C)C(=O)C(O)(c3ccccc3)C(F)(F)F)CC2)cc1Cl` (single isomer, unassigned) [Example 4-4, 2-chloro-N,N-dimethyl-4-(4-(3-(3,3,3-trifluoro-2-hydroxy-N-methyl-2-phenylpropanamido)propyl)piperidin-1-yl)benzamide] came in with a concentration giving a half-maximal response (EC50) of 1580 nM. For the same compound, the Emax in test [1] (setting [3]) was found to be 14%. Further, in test [2], the 50% effective concentration (EC50) turned out to be 45 nM and the “LXR beta actiivty at max dose (%)” value stood at 59%.
Turning to `CN(C)C(=O)c1ccc(N2CCC(C)(CCCN(C)C(=O)[C@@]3(c4ccccc4)CCCO3)CC2)nc1Cl` [Example 9-4, (S)-2-chloro-N,N-dimethyl-6-(4-methyl-4-(3-(N-methyl-2-phenyltetrahydrofuran-2-carboxamido)propyl)piperidin-1-yl)nicotinamide], in test [1], the “LXR alpha IP (nM)” value is “No IP”. Further, the Emax in test [1] (setting [3]) is 14%; in test [2] it was 67%. In addition, the midpoint of the response in test [2], the EC50, lay at 63 nM.
